The conditions of data set [1]: 5 and 10 ml of water.
A short description of data set [2]: Blood pressure / hemodynamic monitoring after urethral suppository (Example 1). To be noted: rabbit, urethral suppository approx. 100 mg lidocaine.
The conditions of data set [3]: PDR 1997 p. 564; cited from earlier work.

The structures appear in SMILES notation. Where a name gives a salt, the structure may show the parent alone.

Consider `CCN(CC)CC(=O)Nc1c(C)cccc1C` [lidocaine], for which the “effect of fluid volume on pH of lidocaine/sodium bicarbonate” value in data set [1] is “does not appear to have a major effect”. The hemodynamic changes entry in data set [2] is recorded as “No significant hemodynamic changes”.

`CCN(CC)CC(=O)Nc1c(C)cccc1C` [lidocaine hydrochloride]: the “maximum recommended adult dose” value in data set [3] was 4.5 mg/kg.

(Values after patent US8741330B2, “Transluminal drug delivery methods and devices” (priority 2006, dated 2014).)
